ChEMBL document CHEMBL4270563, “Neurogenic and neuroprotective donepezil-flavonoid hybrids with sigma-1 affinity and inhibition of key enzymes in Alzheimer's disease” (Eur J Med Chem, 2018)
Calls of active or inactive are those of the source. No cut-off for these calls is given here.

Columns and labels:
SH-SY5Y [1] = test: Neuroprotective activity against rotenone/oligomycin A-induced mitochondrial oxidative stress in human SH-SY5Y cells at 1 uM after 24 hrs by MTT assay relative to control; type: functional
Acetylcholinesterase [2] = target: T1, Acetylcholinesterase (Homo sapiens, UniProt P22303); test: Inhibition of recombinant human AChE expressed in HEK293 cells using acetylthiocholine iodide as substrate pretreated for 5 mins followed by substrate addition and measured for 5 mins by Ellman's method
Homo sapiens [3] = species: Homo sapiens; test: Selectivity index, ratio of IC50 for human serum BuChE to IC50 for recombinant human AChE expressed in HEK293 cells; type: cell-based
SH-SY5Y [4] = test: Neuroprotective activity against rotenone/oligomycin A-induced mitochondrial oxidative stress in human SH-SY5Y cells at 0.3 uM after 24 hrs by MTT assay relative to control; type: functional
SH-SY5Y [5] = test: Neuroprotective activity against rotenone/oligomycin A-induced mitochondrial oxidative stress in human SH-SY5Y cells at 3 uM after 24 hrs by MTT assay relative to control; type: functional
Cholinesterase = Cholinesterase (Homo sapiens, UniProt P06276); test: Inhibition of human serum BuChE using butyrylthiocholine as substrate pretreated for 5 mins followed by substrate addition and measured for 5 mins by Ellman's method
in vitro = conditions: PAMPA, pH 7.4
Description: Permeability of the compound in pH 7.4 PBS by PAMPA-BBB assay

SH-SY5Y [6] = test: Neuroprotective activity against rotenone/oligomycin A-induced mitochondrial oxidative stress in human SH-SY5Y cells at 0.1 uM after 24 hrs by MTT assay relative to control; type: functional
[7] = target: T2, Amine oxidase [flavin-containing] B (Homo sapiens, UniProt P27338); test: biochemical; type: cell-based
T2 sequence (P27338 whole entry): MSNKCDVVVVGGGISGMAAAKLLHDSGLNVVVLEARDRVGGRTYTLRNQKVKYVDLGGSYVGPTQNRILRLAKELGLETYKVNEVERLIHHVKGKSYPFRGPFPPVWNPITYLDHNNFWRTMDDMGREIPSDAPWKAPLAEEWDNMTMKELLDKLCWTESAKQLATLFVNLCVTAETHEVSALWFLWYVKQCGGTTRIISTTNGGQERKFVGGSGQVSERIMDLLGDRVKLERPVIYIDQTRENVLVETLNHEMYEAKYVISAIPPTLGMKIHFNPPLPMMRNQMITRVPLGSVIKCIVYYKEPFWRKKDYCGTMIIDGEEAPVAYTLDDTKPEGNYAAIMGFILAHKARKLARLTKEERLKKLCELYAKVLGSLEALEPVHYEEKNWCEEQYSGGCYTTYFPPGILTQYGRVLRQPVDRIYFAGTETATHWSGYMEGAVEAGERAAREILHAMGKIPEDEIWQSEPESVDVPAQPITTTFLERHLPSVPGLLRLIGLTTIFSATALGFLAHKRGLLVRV
Description: Inhibition of recombinant human MAO-B expressed in baculovirus infected BTI insect cells using p-tyramine as substrate pretreated for 15 mins followed by substrate addition by horse-radish peroxidase/amplex red-based fluorescence method

[8] = target: T3, Amine oxidase [flavin-containing] A (Homo sapiens, UniProt P21397); test: Inhibition of recombinant human MAO-A expressed in baculovirus infected BTI insect cells using p-tyramine as substrate pretreated for 15 mins followed by substrate addition by horse-radish peroxidase/amplex red-based fluorescence method
T3 sequence (P21397 whole entry): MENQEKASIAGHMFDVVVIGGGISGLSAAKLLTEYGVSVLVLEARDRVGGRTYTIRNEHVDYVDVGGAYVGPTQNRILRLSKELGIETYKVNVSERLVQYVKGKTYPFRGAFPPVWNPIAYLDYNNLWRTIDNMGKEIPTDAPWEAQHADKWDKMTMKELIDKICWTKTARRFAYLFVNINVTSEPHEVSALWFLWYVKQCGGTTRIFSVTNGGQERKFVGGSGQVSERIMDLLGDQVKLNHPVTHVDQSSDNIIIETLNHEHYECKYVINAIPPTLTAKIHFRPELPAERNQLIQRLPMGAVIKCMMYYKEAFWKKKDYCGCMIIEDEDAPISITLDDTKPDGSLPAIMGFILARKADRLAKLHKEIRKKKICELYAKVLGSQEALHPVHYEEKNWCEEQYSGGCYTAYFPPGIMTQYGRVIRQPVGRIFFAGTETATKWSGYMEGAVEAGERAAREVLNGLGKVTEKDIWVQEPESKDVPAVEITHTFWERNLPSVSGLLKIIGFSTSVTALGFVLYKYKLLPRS

[9] = Antioxidant activity assessed as trolox equivalent of AAPH-induced radical scavenging activity pretreated for 15 mins followed by APPH challenge measured every minute for 80 mins by ORAC-FL assay; type: functional
[10] = target: T4, Sigma intracellular receptor 2 (Rattus norvegicus, UniProt Q5U3Y7); test: Displacement of [3H]DTG from sigma2 receptor in rat liver membranes by liquid scintillation counting method; type: cell membranes, Membrane
T4 sequence (Q5U3Y7 whole entry): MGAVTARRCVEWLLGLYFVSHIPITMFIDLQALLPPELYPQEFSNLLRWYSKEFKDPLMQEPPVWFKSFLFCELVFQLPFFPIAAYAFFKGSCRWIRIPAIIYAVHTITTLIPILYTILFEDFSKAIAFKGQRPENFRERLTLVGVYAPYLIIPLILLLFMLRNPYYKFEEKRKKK

[11] = target: T5, Polyunsaturated fatty acid 5-lipoxygenase (Homo sapiens, UniProt P09917); test: Inhibition of human 5-lipoxygenase using arachidonic acid as substrate pretreated for 10 mins followed by substrate and ATP addition and measured after 20 mins by H2DCFDA probe based fluorescence assay
T5 sequence (P09917 whole entry): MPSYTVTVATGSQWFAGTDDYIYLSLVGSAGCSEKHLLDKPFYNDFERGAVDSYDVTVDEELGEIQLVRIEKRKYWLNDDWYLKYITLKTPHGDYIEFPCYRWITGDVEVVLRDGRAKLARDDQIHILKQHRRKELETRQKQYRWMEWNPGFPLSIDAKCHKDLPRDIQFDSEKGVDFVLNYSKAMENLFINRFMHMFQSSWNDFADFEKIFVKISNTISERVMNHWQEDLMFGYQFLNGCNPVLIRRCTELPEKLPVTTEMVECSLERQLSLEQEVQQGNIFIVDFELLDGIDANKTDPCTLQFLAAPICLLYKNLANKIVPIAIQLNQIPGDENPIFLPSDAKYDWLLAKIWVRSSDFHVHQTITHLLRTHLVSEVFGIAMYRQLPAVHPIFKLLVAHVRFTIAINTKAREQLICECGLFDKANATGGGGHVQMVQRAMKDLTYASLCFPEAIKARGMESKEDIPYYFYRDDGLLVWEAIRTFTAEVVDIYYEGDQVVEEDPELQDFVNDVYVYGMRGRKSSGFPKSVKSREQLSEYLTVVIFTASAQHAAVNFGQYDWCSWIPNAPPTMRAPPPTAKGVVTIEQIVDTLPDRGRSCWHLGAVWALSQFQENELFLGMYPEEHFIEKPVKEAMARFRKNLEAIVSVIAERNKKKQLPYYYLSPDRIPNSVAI

[12] = target: Sigma non-opioid intracellular receptor 1 (Cavia porcellus, UniProt Q60492); test: Displacement of (+)-[3H]pentazocine from guinea pig brain membrane sigma1 receptor by liquid scintillation counting method
Homo sapiens [13] = species: Homo sapiens; test: Selectivity ratio of IC50 for recombinant human MAO-A expressed in baculovirus infected BTI insect cells to IC50 for recombinant human MAO-B expressed in baculovirus infected BTI insect cells
[14] = Selectivity ratio of Ki for displacement of [3H]DTG from sigma2 receptor in rat liver membranes to Ki for displacement of (+)-[3H]pentazocine from guinea pig brain membrane sigma1 receptor; type: cell membranes
Acetylcholinesterase [15] = target: T1, Acetylcholinesterase; test: Inhibition of recombinant human AChE expressed in HEK293 cells using varying levels of acetylthiocholine iodide as substrate by Lineweaver-burk plot analysis
Mus musculus [16] = species: Mus musculus; test: Neurogenic activity in C57BL/6 mouse subgranular zone neural stem cell-derived neurospheres assessed as differentiation of neural stem cells at 10 uM treated for 7 days followed by poly-L-lysine addition and measured after 3 days by DAPI staining based confocal microscopic analysis; type: functional
[17] = Antioxidant activity assessed as trolox equivalent of AAPH-induced radical scavenging activity at 10 uM pretreated for 15 mins followed by APPH challenge measured every minute for 80 mins by ORAC-FL assay; type: functional
Mus musculus [18] = species: Mus musculus; test: Neurogenic activity in C57BL/6 mouse subgranular zone neural stem cell-derived neurospheres assessed as neuronal maturation at 10 uM treated for 7 days followed by poly-L-lysine addition and measured after 3 days by DAPI staining based confocal microscopic analysis; type: functional
Homo sapiens [19] = species: Homo sapiens; test: Selectivity ratio of IC50 for recombinant human MAO-B expressed in baculovirus infected BTI insect cells to IC50 for recombinant human MAO-A expressed in baculovirus infected BTI insect cells
SH-SY5Y [20] = test: Neuroprotective activity against rotenone/oligomycin A-induced mitochondrial oxidative stress in human SH-SY5Y cells at 10 nM after 24 hrs by MTT assay relative to control; type: functional
[21] = target: T6, Polyunsaturated fatty acid 5-lipoxygenase (Homo sapiens) (UniProt P09917); test: Inhibition of human 5-lipoxygenase at 10 uM using arachidonic acid as substrate pretreated for 10 mins followed by substrate and ATP addition and measured after 20 mins by […] probe based fluorescence assay relative to control
T6 sequence (whole entry): T5 sequence (P09917 whole entry)

Sequence of Sigma non-opioid intracellular receptor 1 (Q60492 whole entry): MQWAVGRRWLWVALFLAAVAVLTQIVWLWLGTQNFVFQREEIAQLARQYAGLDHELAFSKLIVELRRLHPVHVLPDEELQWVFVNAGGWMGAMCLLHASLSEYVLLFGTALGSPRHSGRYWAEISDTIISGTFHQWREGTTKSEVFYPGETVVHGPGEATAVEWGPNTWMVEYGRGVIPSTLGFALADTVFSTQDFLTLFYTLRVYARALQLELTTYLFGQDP
Sequence of Cholinesterase (P06276 whole entry): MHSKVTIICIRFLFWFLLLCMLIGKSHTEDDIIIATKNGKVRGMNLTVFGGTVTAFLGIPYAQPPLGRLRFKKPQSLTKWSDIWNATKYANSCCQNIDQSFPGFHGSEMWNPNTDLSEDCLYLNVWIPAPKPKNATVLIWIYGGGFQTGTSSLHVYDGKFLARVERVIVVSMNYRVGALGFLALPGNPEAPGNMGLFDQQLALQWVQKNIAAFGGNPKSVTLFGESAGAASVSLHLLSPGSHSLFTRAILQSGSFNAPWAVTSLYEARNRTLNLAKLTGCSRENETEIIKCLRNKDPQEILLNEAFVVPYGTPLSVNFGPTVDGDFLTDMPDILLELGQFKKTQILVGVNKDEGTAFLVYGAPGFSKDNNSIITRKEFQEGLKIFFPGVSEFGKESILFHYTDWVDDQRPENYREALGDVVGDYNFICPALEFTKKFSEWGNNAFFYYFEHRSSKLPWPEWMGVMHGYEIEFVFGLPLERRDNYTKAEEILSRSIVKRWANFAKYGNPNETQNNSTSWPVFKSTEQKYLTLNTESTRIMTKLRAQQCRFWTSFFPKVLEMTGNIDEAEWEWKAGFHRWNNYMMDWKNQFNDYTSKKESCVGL
T1 sequence (P22303 whole entry): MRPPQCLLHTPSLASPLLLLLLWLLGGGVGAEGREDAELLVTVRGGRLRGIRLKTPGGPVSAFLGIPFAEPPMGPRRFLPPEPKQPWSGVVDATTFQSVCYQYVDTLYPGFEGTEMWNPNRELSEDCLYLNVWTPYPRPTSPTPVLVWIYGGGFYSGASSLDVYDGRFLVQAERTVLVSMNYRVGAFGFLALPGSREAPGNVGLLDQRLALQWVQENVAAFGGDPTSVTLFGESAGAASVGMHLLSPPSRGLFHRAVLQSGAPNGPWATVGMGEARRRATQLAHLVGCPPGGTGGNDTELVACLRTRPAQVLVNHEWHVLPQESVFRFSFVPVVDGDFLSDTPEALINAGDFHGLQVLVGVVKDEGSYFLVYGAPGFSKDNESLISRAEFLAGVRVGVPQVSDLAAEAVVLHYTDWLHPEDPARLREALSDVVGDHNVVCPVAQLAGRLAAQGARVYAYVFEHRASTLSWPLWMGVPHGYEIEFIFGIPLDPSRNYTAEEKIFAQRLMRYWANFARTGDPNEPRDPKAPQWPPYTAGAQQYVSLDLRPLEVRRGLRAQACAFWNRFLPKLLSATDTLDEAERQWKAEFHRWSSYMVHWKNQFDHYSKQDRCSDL

| Compound | Activity (SH-SY5Y [1]) [%] | IC50 (Acetylcholinesterase [2]) [nM] | Ratio IC50 (Homo sapiens [3]) | Activity (SH-SY5Y [4]) [%] | Activity (SH-SY5Y [5]) [%] | IC50 (Cholinesterase) [nM] | Papp (in vitro) [×10⁻⁶ cm/s] | Activity (SH-SY5Y [6]) [%] | IC50 [7] [nM] | IC50 [8] [nM] | Activity (umolequiv/umol) [9] | Ki [10] [nM] | IC50 [11] [nM] | Ki [12] [nM] | Ratio Ki [14] | also measured |
| --- | --- | --- | --- | --- | --- | --- | --- | --- | --- | --- | --- | --- | --- | --- | --- | --- |
| COc1ccc2oc(C(=O)NC3CCN(Cc4ccccc4)CC3)cc(=O)c2c1 | 14.6 | 970 | > 10 | 13.9 | 8.6 | > 10000 | 7.7 | 9.8 |  |  |  |  |  |  |  |  |
| COc1cc2oc(C(=O)NC3CCN(Cc4ccccc4)CC3)cc(=O)c2cc1OC | 12.3 | 660 | > 15 | 18 | 12.6 | > 10000 | 8.1 | 5.7 |  |  |  |  |  |  |  |  |
| O=C(NCCC1CCN(Cc2ccccc2)CC1)c1cc(=O)c2cc(O)ccc2[nH]1 | 17.4 | 300 | 33 | 13.7 | 29.7 | 9880 | 5.1 | 18.6 | 59900 | 51300 | 1.4 |  |  |  |  |  |
| O=C(NCCC1CCN(Cc2ccccc2)CC1)c1cc(=O)c2cccc(O)c2[nH]1 |  | 1150 | > 8.7 |  |  | > 10000 | 4.9 |  | 13600 | > 100000 | 1 | 290 | 77600 | 47.4 | 6 | Ratio IC50 (Homo sapiens [13]): 7 |
| COc1cc2oc(C(=O)NCCC3CCN(Cc4ccccc4)CC3)cc(=O)c2cc1OC | 17.1 | 46 | > 217 | 18.1 | 22.4 | > 10000 | 5.9 | 11.5 | 5200 | 15300 |  | 239 | 74300 | 37.4 | 6 | Ki (Acetylcholinesterase [15]): 39 nM; Activity (Mus musculus [16]): Active; Activity [17]: inactive; Activity (Mus musculus [18]): Active |
| O=C(NCCC1CCN(Cc2ccccc2)CC1)c1cc(=O)c2cc([N+](=O)[O-])ccc2o1 |  | 21 | 443 |  |  | 9300 | 8.2 |  | > 100000 | 20500 |  | 287 | 9800 | 0.98 | 293 | Ki (Acetylcholinesterase [15]): 12 nM; Activity [17]: inactive; Ratio IC50 (Homo sapiens [19]): > 5 |
| COc1ccc2[nH]cc(CCNC(C)=O)c2c1 [MELATONIN] |  |  |  |  |  |  |  |  |  |  |  |  |  |  |  | Activity (SH-SY5Y [20]): 42.1% |
| COc1cc2oc(C(=O)OCC3CCN(Cc4ccccc4)CC3)cc(=O)c2cc1OC | 6.8 | 300 | > 33 | 19.6 | 12.4 | > 10000 | 3.2 | 19.4 |  |  |  |  |  |  |  |  |
| O=C(NCCC1CCN(Cc2ccccc2)CC1)c1cc(=O)c2cc(O)ccc2o1 | 8.6 | 91 | > 110 | 18.8 | 15.2 | > 10000 | 2.8 | 15 | 51200 | 39300 | 1.2 | 345 | > 100000 | 42.1 | 8 | inhibition [21]: 36% |
